This note sets out measurements from patent publication US20260152480A1, “POLYCYCLIC COMPOUND AND USE THEREOF” (TYK MEDICINES , INC., priority 2022, published 2026).

pIC50: −log10 of the molar value.

The subject of assay [1] is Human pleural mesothelioma cells NCI-H226. As to the kind of experiment: Proliferation inhibition assay of human pleural mesothelioma cells NCI-H226 (CCK8). In kind it is cell-based. The settings on record: 72 h, 3 days incubation. The source says: Experimental Example 1 Cell Anti-Proliferation Test
Proliferation Inhibition Assay of Human Pleural Mesothelioma Cells NCI-H226 by YAP-TEAD Inhibitor Compounds
Experimental materials and equipment: Human pleural mesothelioma cells NCI-H226 were purchased from Nanjing Cobioer Biosciences CO., LTD. RPMI-1640 medium (Bio-Channel), DMSO (dimethyl sulfoxide), CCK8 (WST-8) cell analysis kit (Beyotime), 0.25% EDTA-Tripsin (trypsin solution), 1×PBS (phosphate buffer, PH7.2), 96-well plate (Corning), fetal bovine serum (FBS), 10,000 U/mL penicillin-G/streptomycin, high-speed cryo-centrifuge (EPPENDORF 5810R), enzyme-linked immunoassay (Tecan Spark).
• A) Tumor cells were cultured in RPMI-1640 (containing 10% FBS and 100 U/mL penicillin-G/streptomycin) at 37° C., 5% CO^2 and saturated humidity until 80-90% density. • B) Removed the culture medium from 10 cm Petri dishes; • C) Rinsed the cells once with 10 ml 1×PBS; • D) Added 4 ml 0.25% EDTA-Tripsin into 37° C., 5% CO^2 incubator for trypsin digestion for 5 minutes, transferred to 15 ml centrifuge tube, centrifuged at 200 g for 5 minutes, discarded the supernatant to get cell precipitate; • E) Resuspend with 4 ml DMEM medium, count and adjust to 10,000 cells/ml. • F) Added cell suspension to 96-well plate with 100 μL per well volume and incubate overnight at 37° C., 5% CO^2 incubator.
• A) Preparation of gradient dilution solution of tested compounds: the test compounds were configured into 1 mM reservoir solution. Then 1.5 μl of the reservoir solution was dissolved in 1.5 ml of DMSO-free culture solution, and then a 3-fold serial gradient dilution was performed with 0.1% DMSO culture solution for a total of 9 concentrations, and the concentrations of the compounds after dilution were as follows: • 333.33 nM, 111.11 nM, 37.03 nM, 12.35 nM, 4.15 nM, 1.37 nM, 0.46 nM, 0.15 nM • B) After thorough mixing, 100 μL of culture compound solution was taken separately to replace the culture solution in the cell culture plate, with 4 replicate wells for each concentration; • C) The cells were transferred to the incubator and incubated for 3 days.
• A) Removed the cell culture plate and added 10 μl of CCK-8 (WST-8) solution per well in the biosafety cabinet. • B) Placed the cell culture plate back into the incubator and continued incubation for 3 hours. • C) Determined the absorbance value by selecting 450 nm on a TECAN enzyme-linked immunoassay detector.
The cell viability (% Cell Viability) was calculated using the following formula.
[formula] • A (dosing): absorbance of wells with cells, CCK8 solution and drug solution • A (blank): absorbance of wells with medium and CCK8 solution but no cells • A (0 dosing): absorbance of wells with cells, CCK8 solution and no drug solution • Cell viability: Cell proliferation viability or cytotoxicity viability IC50 values were obtained by curve fitting with GraphPad Prism 8 software.

The test system of another assay is YAP-TEAD. As to the kind of experiment: Nano luciferase method to detect YAP-TEAD inhibitor activity (293T cells transfected with pGL3B-8×GTiiC-nLuc-CMV-fLuc). Particulars: Homo sapiens, HEK-293T; transfected 293T cells, 48 hours incubation; read-out: Nano Luciferas detection (IC50). In kind it is cell-based. From the text:
Experimental Example 2 Nano Luciferase Method to Detect YAP-TEAD Inhibitor Activity
(1) Experimental materials and equipment: 293T cells were purchased from Nanjing Cobioer Biosciences CO., LTD. DMEM medium (high sugar, phenol red free, Bio-Channel), DMSO (dimethyl sulfoxide), Lipo6000™ transfection reagent (Beyotime), pGL3B-8×GTiiC-nLuc-CMV-fLuc plasmid, 0.25% EDTA Tripsin (trypsin solution), 1×PBS (phosphate buffer, PH7.2), 96-well white cell culture plate (PerkinElmer), Fetal Bovine Serum (FBS), 10,000 U/mL penicillin-G/streptomycin, High-speed cryo-centrifuge (EPPENDORF 5810R), 37° C. CO^2 incubator, Vi-Cell® cell counter, Envision microplate reader (PerkinElmer).
Resuscitated 293T cells were inoculated into 10 cm petri dishes and placed in a 5% CO^2 incubator at a constant temperature of 37° C. To ensure transfection efficiency, cells in the logarithmic phase (cell density of about 50%-70%) should be used.
One day before transfection, cells in logarithmic phase were digested with Trypsin-EDTA, the reaction was terminated by adding medium, and the cell suspension was made by blowing and mixing with a pipette.
The cell concentration was determined using Vi-cell and diluted to a suspension of 5*10^5 cells per milliliter. Once the cell suspension was prepared, it was gently mixed and 10 ml of liquid was added to a 10 cm petri dish. […] The cells were incubated in a 5% CO^2 incubator at 37° C. for 1 day.
Take two clean and sterile centrifuge tubes, added 750 μL of opti-MEM Medium without antibiotics and serum respectively, then added […] of plasmid (pGL3B-8×GTiiC-nLuc-CMV-fLuc) to one of the tubes and gently blown with a pipette for mixing; the other tube was added with Lipo6000 transfection reagent and gently blown with a pipette for mixing. After standing at room temperature for 5 minutes, the culture medium containing DNA was gently added to the culture medium containing Lipo6000 transfection reagent, mixed by gently inverting the centrifuge tube, and stood at room temperature for 5 minutes.
The above mixture was added evenly dropwise to a 10-cm petri dish and replaced with fresh complete medium after 6 h of incubation.
After 1 day of transfection, Trypsin EDTA was used to digest the cells, medium was added to terminate the reaction, and a cell suspension was made by blowing and mixing with a pipette.
Cell concentration was determined using Vi-cell, and diluted to a suspension of 20,000 cells per milliliter.
After the cell suspension was prepared, it was gently mixed and 100 μL was added to each well in a 96-well plate so that the density of cells to be measured was 2000 per well.
The inoculated cell culture plates were incubated in an incubator, and the compounds in concentration gradients were added after about 24 hours.
The 10 mM compound reservoir solution was diluted to 50 μM with culture medium, and 50 μM compound solution was added sequentially to the third column of the deep-well plate, and 216 μL of culture medium containing 0.5% DMSO to the fourth to eleventh columns.
Gradient dilution: 100 μL of solution was pipetted from the third column and added to the fourth column, after mixing; another 100 μL of solution was pipetted from the fourth column and added to the fifth column, and the operation was repeated until the eleventh column.
Using a multichannel pipette, 25 μL of compound solution was pipetted from the deep-well plate and added to the 96-well culture plate, and each compound was repeated four times on the 96-well plate. A concentration gradient with a maximum concentration of 10,000 nM, 1:3.16, was eventually formed on the 96-well plate.
The 96-well plate was incubated in a 5% CO^2 incubator at a constant temperature of 37° C. for 48 hours, then removed and equilibrated at room temperature for 10 minutes.
100 μL of detection reagent was added to each well and placed on a horizontal shaker at low speed for 10 minutes to fully lyse the cells. […]

Turning to `C=CC(=O)N1CC=C(c2cccnc2Nc2ccc(C(F)(F)F)cc2)CC1` [Compound T2], the pIC50 (in assay [1]; with YAP-TEAD) was at least 7.00 throughout.
For the molecule `C=CC(=O)N1CCC(c2cccnc2Nc2ccc(C(F)(F)F)cc2)C1` (centres unmarked) [Compound T3], the pIC50 (in assay [1]; with YAP-TEAD) was 6.00 to 7.00 throughout.
Turning to `C=CC(=O)N1CC=C(c2cccnc2Nc2ccc(C(F)(F)F)cc2)C1` [Compound T4], the pIC50 (in assay [1]; in the assay with YAP-TEAD) was at least 7.00 throughout.
Turning to `C=CC(=O)N1CC(c2cccnc2Nc2ccc(C(F)(F)F)cc2)C1` [Compound T5], the pIC50 (in assay [1]; with YAP-TEAD) was 6.00 to 7.00 throughout.
As to `C=CC(=O)N1CCC(c2cccnc2Nc2ccc(S(F)(F)(F)(F)F)cc2)CC1` [Compound T6], the pIC50 (in assay [1]; in the assay with YAP-TEAD) was at least 7.00 each time.
For `C=CC(=O)N1CC=C(c2cccnc2Nc2ccc(S(F)(F)(F)(F)F)cc2)CC1` [Compound T7], the negative logarithm of the IC50 (pIC50) (in assay [1]; in the assay with YAP-TEAD) was at least 7.00 each time.
As for `C=CC(=O)N1CCC(c2cccnc2Nc2ccc(S(F)(F)(F)(F)F)cc2)C1` (centres unmarked) [Compound T8], the pIC50 (in assay [1]; in the assay with YAP-TEAD) was at least 7.00 each time.
As to `C=CC(=O)N1CC=C(c2cccnc2Nc2ccc(S(F)(F)(F)(F)F)cc2)C1` [Compound T9], the pIC50 (in assay [1]; in the assay on YAP-TEAD) was at least 7.00 throughout.
With `C=CC(=O)N1CC(c2cccnc2Nc2ccc(S(F)(F)(F)(F)F)cc2)C1` [Compound T10], the pIC50 (in assay [1]; in the assay with YAP-TEAD) was at least 7.00 in each case.
In the case of `C=CC(=O)N1CCC(c2cccnc2Nc2ccc(C)cc2)CC1` [Compound T11], the pIC50 (in assay [1]; in the assay with YAP-TEAD) was at least 7.00 in each case.
As to `C=CC(=O)N1CC=C(c2cccnc2Nc2ccc(C)cc2)CC1` [Compound T12], the pIC50 (in assay [1]; in the assay with YAP-TEAD) was at least 7.00 each time.
As for `C=CC(=O)N1CCC(c2cccnc2Nc2ccc(C)cc2)C1` (centres unmarked) [Compound T13], the pIC50 (in assay [1]; with YAP-TEAD) was at least 7.00 in each case.
Take `C=CC(=O)N1CC=C(c2cccnc2Nc2ccc(C)cc2)C1` [Compound T14]: the pIC50 (in assay [1]; with YAP-TEAD) was at least 7.00 throughout.
As for `C=CC(=O)N1CC(c2cccnc2Nc2ccc(C)cc2)C1` [Compound T15], the pIC50 (in assay [1]; in the assay on YAP-TEAD) was at least 7.00 each time.
As for `C=CC(=O)N1CC=C(c2nccnc2Nc2ccc(C(F)(F)F)cc2)CC1` [Compound T17], the pIC50 (in assay [1]; in the assay on YAP-TEAD) was at least 7.00 each time.
For `C=CC(=O)N1CCC(c2nccnc2Nc2ccc(C(F)(F)F)cc2)C1` (centres unmarked) [Compound T18], the pIC50 (in assay [1]; in the assay with YAP-TEAD) was at least 7.00 throughout.
Regarding `C=CC(=O)N1CC=C(c2nccnc2Nc2ccc(C(F)(F)F)cc2)C1` [Compound T19], the pIC50 (in assay [1]; in the assay on YAP-TEAD) was at least 7.00 each time.
`C=CC(=O)N1CC(c2nccnc2Nc2ccc(C(F)(F)F)cc2)C1` [Compound T20]: the pIC50 (in assay [1]; with YAP-TEAD) was at least 7.00 each time.
`C=CC(=O)N1CCC(c2ccc(C)nc2Nc2ccc(C(F)(F)F)cc2)CC1` [Compound T21]: the pIC50 (in assay [1]; with YAP-TEAD) was at least 7.00 each time.
`C=CC(=O)N1CCC(c2c(C)ccnc2Nc2ccc(C(F)(F)F)cc2)CC1` [Compound T23]: the pIC50 (in assay [1]; in the assay with YAP-TEAD) was at least 7.00 each time.
As for `C=CC(=O)N1CCC(c2ccc(F)nc2Nc2ccc(C(F)(F)F)cc2)CC1` [Compound T24], the pIC50 (in assay [1]; with YAP-TEAD) was at least 7.00 each time.
For `C=CC(=O)N1CCC(c2cc(F)cnc2Nc2ccc(C(F)(F)F)cc2)CC1` [Compound T25], the pIC50 (in assay [1]; in the assay on YAP-TEAD) was at least 7.00 in each case.
With `C=CC(=O)N1CCC(c2c(F)ccnc2Nc2ccc(C(F)(F)F)cc2)CC1` [Compound T26], the negative logarithm of the IC50 (pIC50) (in assay [1]; in the assay with YAP-TEAD) was at least 7.00 each time.
In the case of `C=CC(=O)N1CCC(c2cc(Cl)cnc2Nc2ccc(C(F)(F)F)cc2)CC1` [Compound T28], the pIC50 (in assay [1]; with YAP-TEAD) was at least 7.00 in each case.
As for `C=CC(=O)N1CCC(c2c(Cl)ccnc2Nc2ccc(C(F)(F)F)cc2)CC1` [Compound T29], the pIC50 (in assay [1]; with YAP-TEAD) was at least 7.00 in each case.
Consider `C=CC(=O)N1CCC(c2ccc(OC)nc2Nc2ccc(C(F)(F)F)cc2)CC1` [Compound T33], for which the pIC50 in assay [1] was 6.00 to 7.00; in the assay with YAP-TEAD, at least 7.00.
On to `C=CC(=O)N1CCC(c2cc(OC)cnc2Nc2ccc(C(F)(F)F)cc2)CC1` [Compound T34], for which the pIC50 (in assay [1]; in the assay with YAP-TEAD) was 6.00 to 7.00 throughout.
Take `C=CC(=O)N1CCC(c2c(OC)ccnc2Nc2ccc(C(F)(F)F)cc2)CC1` [Compound T35]: the pIC50 (in assay [1]; with YAP-TEAD) was 6.00 to 7.00 throughout.
Consider `C=CC(=O)N1CCN(c2cccnc2Nc2ccc(C(F)(F)F)cc2)CC1` [Compound T36], for which the pIC50 (in assay [1]; with YAP-TEAD) was 6.00 to 7.00 throughout.
Regarding `C=CC(=O)N1CCC(c2cc(F)cnc2Oc2ccc(C(F)(F)F)cc2)CC1` [Compound T38], the pIC50 (in assay [1]; in the assay on YAP-TEAD) was 6.00 to 7.00 each time.
Regarding `C=CC(=O)N1CCC(c2cc(C(F)(F)F)cnc2Oc2ccc(C(F)(F)F)cc2)CC1` [Compound T39], the pIC50 (in assay [1]; in the assay on YAP-TEAD) was 6.00 to 7.00 in each case.
As to `C=CC(=O)N1CCC(c2ccnnc2Nc2ccc(C(F)(F)F)cc2)CC1` [Compound T42], the pIC50 (in assay [1]; with YAP-TEAD) was 6.00 to 7.00 throughout.
With `C=CC(=O)N1CCC(c2cncnc2Nc2ccc(C(F)(F)F)cc2)CC1` [Compound T43], the pIC50 (in assay [1]; in the assay with YAP-TEAD) was 6.00 to 7.00 each time.
Consider `C=CC(=O)N1CCC(c2cc(C)cnc2Oc2ccc(C(F)(F)F)cc2)CC1` [Compound T44], for which the pIC50 (in assay [1]; in the assay on YAP-TEAD) was 6.00 to 7.00 in each case.
